According to PMC7909954 (eLife, 2021):
Several values for one entry are separate records, joined by “and”; a condition that tells them apart may be missing. Identical values can stand only once.

What was measured:
mKOR = mKOR (Mus musculus, UniProt P33534); assay: biochemical
mDOR [1] = target: T1, mDOR (Mus musculus, UniProt P32300); assay: biochemical; conditions: read-out: Emax mDOR [35S]GTPγS
mDOR [2] = target: T1, mDOR; assay: cell-based
mMOR = mMOR (Mus musculus, UniProt P42866); assay: biochemical
Chain of mMOR (P42866 whole entry): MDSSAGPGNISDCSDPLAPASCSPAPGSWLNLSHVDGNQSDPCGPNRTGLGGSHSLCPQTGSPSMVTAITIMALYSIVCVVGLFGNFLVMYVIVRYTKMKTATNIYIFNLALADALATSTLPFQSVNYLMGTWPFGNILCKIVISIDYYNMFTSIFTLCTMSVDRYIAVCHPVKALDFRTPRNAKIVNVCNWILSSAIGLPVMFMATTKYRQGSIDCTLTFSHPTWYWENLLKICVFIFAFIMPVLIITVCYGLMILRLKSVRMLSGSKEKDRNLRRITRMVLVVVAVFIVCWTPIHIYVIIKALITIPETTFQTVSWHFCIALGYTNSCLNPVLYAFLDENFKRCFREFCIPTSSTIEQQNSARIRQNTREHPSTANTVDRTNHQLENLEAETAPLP

[3] = test system: MOR KO, KOR KO and DOR KO mice; assay: 55°C warm-water tail-withdrawal assay in opioid receptor knock out mice; type: in vivo, mouse; conditions: 100 nmol i.c.v. in 50% DMSO

T1 sequence (P32300 whole entry): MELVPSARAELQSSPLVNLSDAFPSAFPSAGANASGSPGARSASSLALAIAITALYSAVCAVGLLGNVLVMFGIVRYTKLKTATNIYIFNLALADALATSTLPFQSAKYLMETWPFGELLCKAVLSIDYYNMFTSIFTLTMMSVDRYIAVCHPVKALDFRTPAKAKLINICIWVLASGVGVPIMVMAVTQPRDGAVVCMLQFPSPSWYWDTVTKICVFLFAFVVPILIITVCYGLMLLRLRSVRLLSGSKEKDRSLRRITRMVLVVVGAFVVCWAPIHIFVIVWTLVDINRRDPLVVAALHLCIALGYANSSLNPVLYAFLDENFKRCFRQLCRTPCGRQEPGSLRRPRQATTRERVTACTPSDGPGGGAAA
Chain of mKOR (P33534 whole entry): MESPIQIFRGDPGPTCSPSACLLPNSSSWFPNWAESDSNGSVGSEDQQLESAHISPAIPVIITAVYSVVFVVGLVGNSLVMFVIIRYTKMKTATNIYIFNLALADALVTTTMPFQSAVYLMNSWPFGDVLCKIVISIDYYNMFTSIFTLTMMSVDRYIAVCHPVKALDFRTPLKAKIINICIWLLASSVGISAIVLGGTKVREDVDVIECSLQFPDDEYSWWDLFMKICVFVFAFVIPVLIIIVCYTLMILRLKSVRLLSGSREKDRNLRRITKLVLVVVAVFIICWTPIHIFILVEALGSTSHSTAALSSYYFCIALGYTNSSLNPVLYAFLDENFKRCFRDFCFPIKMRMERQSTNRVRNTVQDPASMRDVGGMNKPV

What does the source list for `NCc1cccc(C(=O)N[C@@H]2CCC3C4Cc5ccc(O)c6c5[C@@]3(CCN4CC3CC3)C2O6)c1` (stereo partly drawn) [MP1207, 3-(Aminomethyl)-N-((7R,12bS)−3-(cyclopropylmethyl)−9-hydroxy-2,3,4,4a,5,6,7,7a-octahydro-1H-4,12-methanobenzofuro[3,2-e]isoquinolin-7-yl)benzamide]?
Ki (mKOR): 0.39 ± 0.05 nM; Emax (mDOR [1]): 10 to 15%; EC50 (mDOR [2]; EC50 G protein activation (BRET) mDOR): 116 nM; Emax (mDOR [2]; HEK-293T, read-out: Emax% G protein activation (BRET) mDOR): 52 ± 2.3%; Ki (mMOR): 0.23 ± 0.02 nM; %A-10 min ([3]; DOR KO mice, group mean n=8): 77.68%; tail-withdrawal latency, 10 min ([3]; DOR KO mice, group mean n=8): 12.075 s; %A-10 min ([3]; DOR KO mice, individual mouse): 100% and 14.62% and 6.82%; tail-withdrawal latency, 10 min ([3]; DOR KO mice, individual mouse): 15 s and 3.9 s and 2.7 s; %A-20 min ([3]; DOR KO mice, group mean n=8): 75.4713%; tail-withdrawal latency, 20 min ([3]; DOR KO mice, group mean n=8): 11.775 s; %A-20 min ([3]; DOR KO mice, individual mouse): 100% and 91.85% and 84.33% and 20.77% and 6.82%; tail-withdrawal latency, 20 min ([3]; DOR KO mice, individual mouse): 15 s and 13.9 s and 12.9 s and 4.7 s and 2.7 s; %A-30 min ([3]; DOR KO mice, group mean n=8): 78.53%; tail-withdrawal latency, 30 min ([3]; DOR KO mice, group mean n=8): 12.1875 s; %A-30 min ([3]; DOR KO mice, individual mouse): 100% and 13.85% and 14.39%; tail-withdrawal latency, 30 min ([3]; DOR KO mice, individual mouse): 15 s and 3.8 s and 3.7 s; %A-40 min ([3]; DOR KO mice, group mean n=8): 46.6687%; tail-withdrawal latency, 40 min ([3]; DOR KO mice, group mean n=8): 7.925 s; %A-40 min ([3]; DOR KO mice, individual mouse): 100% and 51.85% and 38.64% and 23.13% and 45.52% and 89.78% and 12.31% and 12.12%; tail-withdrawal latency, 40 min ([3]; DOR KO mice, individual mouse): 15 s and 8.5 s and 6.9 s and 4.7 s and 7.7 s and 13.6 s and 3.6 s and 3.4 s; %A-50 min ([3]; DOR KO mice, group mean n=8): 38.3875%; tail-withdrawal latency, 50 min ([3]; DOR KO mice, group mean n=8): 6.8 s; %A-50 min ([3]; DOR KO mice, individual mouse): 62.12% and 17.04% and 35.61% and 100% and 29.1% and 37.96% and 17.69% and 7.58%; tail-withdrawal latency, 50 min ([3]; DOR KO mice, individual mouse): 10 s and 3.8 s and 6.5 s and 15 s and 5.5 s and 4.3 s and 2.8 s; %A-60 min ([3]; DOR KO mice, group mean n=8): 43.0038%; tail-withdrawal latency, 60 min ([3]; DOR KO mice, group mean n=8): 7.425 s; %A-60 min ([3]; DOR KO mice, individual mouse): 62.12% and 55.56% and 25% and 100% and 36.57% and 36.5% and 16.92% and 11.36%; tail-withdrawal latency, 60 min ([3]; DOR KO mice, individual mouse): 10 s and 9 s and 5.1 s and 15 s and 6.5 s and 6.3 s and 4.2 s and 3.3 s; %A-70 min ([3]; DOR KO mice, group mean n=8): 13.2125%; tail-withdrawal latency, 70 min ([3]; DOR KO mice, group mean n=8): 3.4375 s; %A-70 min ([3]; DOR KO mice, individual mouse): 10.61% and 9.63% and 20.45% and 13.43% and 5.97% and 19.71% and 9.23% and 16.67%; tail-withdrawal latency, 70 min ([3]; DOR KO mice, individual mouse): 3.2 s and 2.8 s and 4.5 s and 3.4 s and 2.4 s and 4 s; %A-80 min ([3]; DOR KO mice, group mean n=8): 8.564%; tail-withdrawal latency, 80 min ([3]; DOR KO mice, group mean n=8): 2.8125 s; %A-80 min ([3]; DOR KO mice, individual mouse): 5.3% and 7.41% and 6.82% and 9.7% and 4.48% and 5.84% and 11.54% and 17.42%; tail-withdrawal latency, 80 min ([3]; DOR KO mice, individual mouse): 2.5 s and 2.7 s and 2.9 s and 2.2 s and 2.1 s and 3.5 s and 4.1 s; %A-90 min ([3]; DOR KO mice, group mean n=8): 3.185%; tail-withdrawal latency, 90 min ([3]; DOR KO mice, group mean n=8): 1.95 s; %A-90 min ([3]; DOR KO mice, individual mouse): 3.03% and 3.7% and 0% and 5.11% and 13.64%; tail-withdrawal latency, 90 min ([3]; DOR KO mice, individual mouse): 2.2 s and 2 s and 1.5 s and 1.4 s and 1.1 s and 1.8 s and 3.6 s; %A-100 min ([3]; DOR KO mice, group mean n=8): 2.474%; tail-withdrawal latency, 100 min ([3]; DOR KO mice, group mean n=8): 1.925 s; %A-100 min ([3]; DOR KO mice, individual mouse): 0% and 2.22% and 0.75% and 2.24% and 0.73% and 13.85%; tail-withdrawal latency, 100 min ([3]; DOR KO mice, individual mouse): 1.6 s and 1.8 s and 1.4 s and 1.7 s and 1.9 s and 3.8 s; %A-110 min ([3]; DOR KO mice, group mean n=8): 0.555%; tail-withdrawal latency, 110 min ([3]; DOR KO mice, group mean n=8): 1.6125 s; %A-110 min ([3]; DOR KO mice, individual mouse): 0% and 2.22% and 1.49% and 0.73%; tail-withdrawal latency, 110 min ([3]; DOR KO mice, individual mouse): 1.3 s and 1.8 s and 1.6 s and 1.4 s and 1.9 s and 1.7 s; %A-10 min ([3]; KOR KO mice, group mean n=8): 63.4062%; tail-withdrawal latency, 10 min ([3]; KOR KO mice, group mean n=8): 10.1 s; %A-10 min ([3]; KOR KO mice, individual mouse): 100% and 52.52% and 98.5% and 0% and 0.76%; tail-withdrawal latency, 10 min ([3]; KOR KO mice, individual mouse): 15 s and 8.4 s and 14.8 s and 1.8 s and 1.9 s; %A-20 min ([3]; KOR KO mice, group mean n=8): 39.6638%; tail-withdrawal latency, 20 min ([3]; KOR KO mice, group mean n=8): 6.8125 s; %A-20 min ([3]; KOR KO mice, individual mouse): 34.59% and 36.76% and 15.83% and 23.31% and 0% and 6.82%; tail-withdrawal latency, 20 min ([3]; KOR KO mice, individual mouse): 6.3 s and 6.4 s and 3.3 s and 4.8 s and 1 s and 2.7 s; %A-30 min ([3]; KOR KO mice, group mean n=8): 26.1938%; tail-withdrawal latency, 30 min ([3]; KOR KO mice, group mean n=8): 5.125 s; %A-30 min ([3]; KOR KO mice, individual mouse): 21.8% and 44.85% and 16.55% and 0% and 4.55%; tail-withdrawal latency, 30 min ([3]; KOR KO mice, individual mouse): 4.6 s and 7.5 s and 3.4 s and 2.2 s and 2.4 s; %A-40 min ([3]; KOR KO mice, group mean n=8): 17.335%; tail-withdrawal latency, 40 min ([3]; KOR KO mice, group mean n=8): 3.9125 s; %A-40 min ([3]; KOR KO mice, individual mouse): 14.29% and 16.91% and 15.83% and 12.78% and 7.81% and 6.82%; tail-withdrawal latency, 40 min ([3]; KOR KO mice, individual mouse): 3.6 s and 3.7 s and 3.3 s and 3.4 s and 3.2 s and 2.7 s
